# Values of other authors, collected in patent US20240423997A1, “METHOD OF TREATING AMYOTROPHIC LATERAL SCLEROSIS” (priority 2021, published 2024).
# Details: in vivo; Shibuya 2001; cited from earlier work
structure (smiles),measurement,value
"O=S(=O)(c1cccc2c(O)nccc12)N1CCCNCC1 [M3, hydroxyfasudil]",half-life,about 8 hours
